Data from patent US6432416B1, “Anti-microbial power coating” (Dupont Powder Coatings USA, Inc., priority 1997, dated 2002).

Tests used:
[1] = system: Aspergillus niger (ATCC 6275), Penicillium funiculosum (ATCC 11797), and Aureobasidium pullulans (ATCC 9348); test: Resistance to fungal growth, ASTM D5590-95, mixed spore suspension; settings: concentration of 1 percent; four weeks of exposure to fungus spores
Procedure: Resistance to fungal growth was tested generally in accordance with ASTM D5590-95. […] Samples were aseptically placed onto a modified malt agar plate and then each sample was inoculated.
The same samples were also exposed to fungus spores for a period of four weeks.

[2] = system: Pseudomonas aeruginosa, Staphylococcus aureus, and Escherichia coli; test: Shorter-term bacterial test per ASTM D 5588-94; assay type: cell-based; settings: after 72 hours of incubation; 0.1 percent and 1 percent formulations
Procedure: Steel coupons were coated with the Fungitrol® 11, Butyl Parabens®, and Amerstat® 300 anti-microbial formulations, at 0.1 percent and 1 percent, and exposed as per ASTM D 5588-94 to a mixture containing the bacteria Pseudomonas aeruginosa, Staphylococcus aureus, and Escherichia coli. After the coupons were washed with a 70 percent ethanol/water solution, they were placed in a sterile Petri dish, inoculated, and incubated at 32° C. for the duration of the test.
At appropriate intervals, each sample was checked for the presence of viable microorganisms by streaking each sample with a sterile cotton swab, then streaking the swab onto Tryptic Soy Agar. The plates were incubated for 48 hours at 32° C. […] The presence of microbial growth would indicate non-sterility, i.e., the sample contained viable microbial contamination.
The samples were examined for low levels of bacterial contamination by transferring an aliquot with a sterile cotton swab to a Tryptic Soy Broth in culture tubes. The tubes were incubated for 24 hours at 32° C., streaked onto Tryptic Soy Agar plates and the plates were incubated for 24 to 48 hours at 32° C.

[3] = system: Pseudomonas aeruginosa, Escherichia coli, and Salmonella typhinurium; test: Long-term anti-microbial activity test of cured powder coatings (bacterial coverage rating); settings: cured epoxy powder coating; for AVERAGE BACTERIAL COVERAGE: growth rating 0 (good) to 4 (poor), averaged over the different samples (0.1 and 1 percent additive, different thickness), after four weeks; for bacterial coverage / activity relative to the control: long-term test
Procedure: A long-term anti-microbial activity test was carried out to determine if selected anti-microbial agents maintain their anti-microbial activity after being incorporated into powder coatings and cured.
Six anti-microbial agents were selected for experimentation. […] For each powder coating formulation, one of the six anti-microbial agents was added at concentrations of 0.1 percent and 1 percent of the total resin weight.
Samples containing one of the six additives at the two concentrations in the coating matrix were prepared. […] Controls containing the coating formulation with no additive and controls containing only the black silicone resin used for edge coverage were included.
The target bacterial organisms were Pseudomonas aeruginosa, Escherichia coli, and Salmonella typhinurium. Five groups of samples were prepared. […] Each of the following samples was prepared with an additive concentration of 1 percent of the resin by weight.
The results were then rated on a scale of “0” (good performance) to “4” (poor performance) based on the number of colony-forming units observed. The growth ratings, which were averaged over the different samples, are based on the following numerical rating system:
0=No contamination (sterile).
1=Trace of contamination (1-9 colonies per “streak-inch”).
2=Light contamination (10-99 colonies per “streak-inch”).
3=Moderate contamination (greater than 100 colonies, but still distinguishable).
4=Heavy contamination (continuous smear of growth).

[4] = system: fungus spores of Aspergillus niger, Penicillium funiculosum, and Aerobasidium pullulans; test: Shorter-term fungal test per ASTM D 5588-94; assay type: cell-based; settings: after 72 hours of incubation
Procedure: Next, steel coupons were coated with the anti-microbial formulations listed above and exposed per ASTM D 5588-94 to a mixture containing the fungus spores of Aspergillus niger, Penicillium funiculosum, and Aerobasidium pullulans. After the coupons were washed with a 70 percent ethanol/water solution, they were placed in a sterile Petri dish, inoculated, and incubated at 28° C. for the duration of the test. At appropriate intervals, each sample was checked for the presence of viable microorganisms by streaking each sample with a sterile cotton swab, then streaking the swab onto Potato Dextrose Agar (adjusted to pH 3.5 for fungi). These plates were also incubated at 28° C. […] The presence of microbial growth would indicate non-sterility, i.e., the sample contained viable microbial contamination.

[5] = system: Staphylococcus aureus, Escherichia coli, and Salmonella choleraesuis; test: AATCC Test Method 147 at higher anti-microbial concentration (zones of inhibition)
[6] = 5 percent agent in powder coating

| SMILES | fungal growth on coating surface [1] | AVERAGE BACTERIAL COVERAGE [3] | bacterial coverage / activity relative to the control [3] | also measured |
| --- | --- | --- | --- | --- |
| N#CC(Br)(Br)C(N)=O [Amerstat® 300, dibromocyanoacetamide] | a very small amount of fungal growth | 1.6 ± 1.5 | significantly improved bacterial coverage | bacterial growth on coated samples [2]: did not show conclusive results |
| CCCCOC(=O)c1ccc(O)cc1 [Butyl Parabens®, butyl-p-hydroxy-benzoate] | free of visible fungal growth | 2.6 ± 1.3 |  | growth on coated samples exposed to fungus spores [4]: free of (or showed very low levels of) bacterial growth; bacterial growth on coated samples [2]: free of bacterial growth and were actually sterile |
| O=[N+]([O-])C(Br)(CO)CO [Canguard® 409, 2-bromo-2-nitropropane-1,3-diol] |  |  |  | zones of inhibition [5, 6]: Significant zones of inhibition; inhibiting the growth of Escherichia coli and Salmonella choleraesuis, compared with the triclosan formulation [5]: performed better than the triclosan formulation |
| Oc1cc(Cl)ccc1Oc1ccc(Cl)cc1Cl [Irgasan® DP 400, 5-chloro-2-(2,4-dichloro-phenoxy)phenol] |  |  |  | zones of inhibition ([5]; 3 percent agent in powder coating): Significant zones of inhibition |
| N#Cc1c(Cl)c(Cl)c(Cl)c(C#N)c1Cl [Nuocide® 960, tetrachloroisophthalonitrile] | free of visible fungal growth | 3.0 ± 1.3 |  |  |
| CN1CSC(=S)N(C)C1 [Nuosept® S, 3,5-dimethyltetrahydro-1,3,5-2H-thiazine-2-thione] | did not show conclusive fungal resistance | 3.6 ± 0.5 | did not appear to improve the activity relative to the control | zones of inhibition [5, 6]: Significant zones of inhibition; zones of inhibition ([5]; 10 percent agent in powder coating): Significant zones of inhibition; inhibiting the growth of Escherichia coli and Salmonella choleraesuis, compared with the triclosan formulation [5]: performed as well as or better than the triclosan formulation |
| CCCOC(=O)c1ccc(O)cc1 [Propyl Parabens®] | free of visible fungal growth | 3.7 ± 0.5 | did not appear to improve the activity relative to the control |  |
